Data published in publication PMC6197744, “Triazolo[4,5-d]pyrimidines as Validated General Control Nonderepressible 2 (GCN2) Protein Kinase Inhibitors Reduce Growth of Leukemia Cells” (Computational and Structural Biotechnology Journal, 2018).

Experiments:
Assay in all cases: Broad kinase panel screen (split-luciferase)
Assay type in all cases: binding
MAP3K10 /MLK2 = target: T1, MAP3K10 /MLK2 (Homo sapiens, UniProt Q02779); details: MAP3K10 /MLK2, 0.5 uM
T1 construct: purchased Luceome Biotechnologies
Description: (§1) Compound 2 was screened against a standard panel of 50 protein kinases by Luceome Biotechnologies (Tucson, AZ). In brief, Compound 2 was dissolved and diluted in DMSO to a concentration of 12.5 μM from a 10 mM stock solution. As a control, compound 2 was evaluated for false positive against split-luciferase. For kinase assays, each C-terminal half of firefly luciferase linked kinase (Cfluc-Kinase) was translated along with the coiled coil Fos attached to the N-terminal fragment (Nfluc) (Fos-Nfluc) using rabbit reticulocyte lysate at 30 °C for 90 min. 24 µL aliquot of this lysate containing 1 µL of either DMSO or Compound 2 (at a final concentration 0.5 μM) was incubated for 30 minutes at room temperature followed by 1 hour incubation in the presence of a kinase specific probe. Finally, 80 µL of luciferin assay reagent was added and luminescence was immediately measured on a luminometer. Compound 2 was screened in duplicate against each kinase.
(§2) The % Inhibition and % Activity Remaining was calculated using the following equations: […]

FLT3 = target: T2, FLT3 (Homo sapiens, UniProt P36888); details: FLT3, 0.5 uM
T2 construct: purchased Luceome Biotechnologies
Description: as §1, §2

MST2 = target: T3, MST2 (Homo sapiens, UniProt Q13188); details: MST2, 0.5 uM
T3 construct: purchased Luceome Biotechnologies
Description: as §1, §2

AMPK-a1/AMPK = target: T4, AMPK-a1/AMPK (Homo sapiens, UniProt Q13131)
T4 construct: purchased Luceome Biotechnologies
Description: as §1, §2

MARK1 = target: T5, MARK1 (Homo sapiens, UniProt Q9P0L2); details: MARK1, 0.5 uM
T5 construct: purchased Luceome Biotechnologies
Description: as §1, §2

PLK4 = target: T6, PLK4 (Homo sapiens, UniProt O00444); details: PLK4, 0.5 uM
T6 construct: purchased Luceome Biotechnologies
Description: as §1, §2

PDGFRB = target: T7, PDGFRB (Homo sapiens, UniProt P09619)
T7 construct: purchased Luceome Biotechnologies
Description: as §1, §2

SRC = target: T8, SRC (Homo sapiens, UniProt P12931)
T8 construct: purchased Luceome Biotechnologies
Description: as §1, §2

AURKA = target: T9, AURKA (Homo sapiens, UniProt O14965)
T9 construct: purchased Luceome Biotechnologies
Description: as §1, §2

SIK1/SNF1LK = target: T10, SIK1/SNF1LK (Homo sapiens, UniProt P57059)
T10 construct: purchased Luceome Biotechnologies
Description: as §1, §2

HCK = target: T11, HCK (Homo sapiens, UniProt P08631)
T11 construct: purchased Luceome Biotechnologies
Description: as §1, §2

MARK2 = target: T12, MARK2 (Homo sapiens, UniProt Q7KZI7); details: MARK2, 0.5 uM
T12 construct: purchased Luceome Biotechnologies
Description: as §1, §2

PKG1/PRKG1 = target: T13, PKG1/PRKG1 (Homo sapiens, UniProt Q13976); details: PKG1/PRKG1, 0.5 uM
T13 construct: purchased Luceome Biotechnologies
Description: as §1, §2

PIM1 = target: T14, PIM1 (Homo sapiens, UniProt P11309); details: PIM1, 0.5 uM
T14 construct: purchased Luceome Biotechnologies
Description: as §1, §2

MAPK14/p38a = target: T15, MAPK14/p38a (Homo sapiens, UniProt Q16539)
T15 construct: purchased Luceome Biotechnologies
Description: as §1, §2

MAP3K11/MLK3 = target: T16, MAP3K11/MLK3 (Homo sapiens, UniProt Q16584); details: MAP3K11/MLK3, 0.5 uM
T16 construct: purchased Luceome Biotechnologies
Description: as §1, §2

PKCe/PRKCE = target: T17, PKCe/PRKCE (Homo sapiens, UniProt Q02156)
T17 construct: purchased Luceome Biotechnologies
Description: as §1, §2

ABL1 = target: T18, ABL1 (Homo sapiens, UniProt P00519); details: ABL1, 0.5 uM
T18 construct: purchased Luceome Biotechnologies
Description: as §1, §2

MUSK = target: T19, MUSK (Homo sapiens, UniProt O15146)
T19 construct: purchased Luceome Biotechnologies
Description: as §1, §2

EPHA5 = target: T20, EPHA5 (Homo sapiens, UniProt P54756); details: EPHA5, 0.5 uM
T20 construct: purchased Luceome Biotechnologies
Description: as §1, §2

PKA/PRKACA = target: T21, PKA/PRKACA (Homo sapiens, UniProt P17612)
T21 construct: purchased Luceome Biotechnologies
Description: as §1, §2

CAMK1D = target: T22, CAMK1D (Homo sapiens, UniProt Q8IU85)
T22 construct: purchased Luceome Biotechnologies
Description: as §1, §2

YSK1 = target: T23, YSK1 (Homo sapiens, UniProt O00506); details: YSK1, 0.5 uM
T23 construct: purchased Luceome Biotechnologies
Description: as §1, §2

MSK2/RPS6KA4 = target: T24, MSK2/RPS6KA4 (Homo sapiens, UniProt O75676); details: MSK2/RPS6KA4, 0.5 uM
T24 construct: purchased Luceome Biotechnologies
Description: as §1, §2

PDK1/PDPK1 = target: T25, PDK1/PDPK1 (Homo sapiens, UniProt O15530); details: PDK1/PDPK1, 0.5 uM
T25 construct: purchased Luceome Biotechnologies
Description: as §1, §2

T24 sequence (O75676 whole entry): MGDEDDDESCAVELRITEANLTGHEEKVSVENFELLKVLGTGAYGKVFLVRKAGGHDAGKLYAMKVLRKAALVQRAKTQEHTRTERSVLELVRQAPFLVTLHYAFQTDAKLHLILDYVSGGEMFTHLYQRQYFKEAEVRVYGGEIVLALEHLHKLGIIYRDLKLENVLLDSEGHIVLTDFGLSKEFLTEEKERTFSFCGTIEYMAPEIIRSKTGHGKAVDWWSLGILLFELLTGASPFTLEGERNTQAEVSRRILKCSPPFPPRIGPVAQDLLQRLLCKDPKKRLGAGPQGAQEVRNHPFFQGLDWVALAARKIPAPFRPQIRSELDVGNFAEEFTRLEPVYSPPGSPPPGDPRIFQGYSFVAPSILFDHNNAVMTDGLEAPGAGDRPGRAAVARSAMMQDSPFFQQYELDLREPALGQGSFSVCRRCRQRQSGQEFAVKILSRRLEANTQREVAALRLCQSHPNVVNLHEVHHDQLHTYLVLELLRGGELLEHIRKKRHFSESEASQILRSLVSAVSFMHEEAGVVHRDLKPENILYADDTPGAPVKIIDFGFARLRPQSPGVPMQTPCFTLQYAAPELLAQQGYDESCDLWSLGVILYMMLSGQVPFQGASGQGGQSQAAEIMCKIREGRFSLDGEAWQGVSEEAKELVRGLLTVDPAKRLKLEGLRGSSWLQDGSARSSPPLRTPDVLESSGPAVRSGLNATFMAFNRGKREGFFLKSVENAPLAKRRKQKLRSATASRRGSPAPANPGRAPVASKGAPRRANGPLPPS
T15 sequence (Q16539 whole entry): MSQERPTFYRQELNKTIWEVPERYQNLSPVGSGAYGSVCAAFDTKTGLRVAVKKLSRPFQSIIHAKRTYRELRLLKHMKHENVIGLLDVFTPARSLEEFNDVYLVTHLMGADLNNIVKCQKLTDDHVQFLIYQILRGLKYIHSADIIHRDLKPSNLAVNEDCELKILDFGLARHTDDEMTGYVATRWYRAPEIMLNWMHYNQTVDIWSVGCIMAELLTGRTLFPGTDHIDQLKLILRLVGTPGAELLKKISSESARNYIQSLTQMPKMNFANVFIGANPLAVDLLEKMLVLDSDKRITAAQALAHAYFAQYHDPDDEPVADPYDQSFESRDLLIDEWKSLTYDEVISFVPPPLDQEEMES
T1 sequence (Q02779 whole entry): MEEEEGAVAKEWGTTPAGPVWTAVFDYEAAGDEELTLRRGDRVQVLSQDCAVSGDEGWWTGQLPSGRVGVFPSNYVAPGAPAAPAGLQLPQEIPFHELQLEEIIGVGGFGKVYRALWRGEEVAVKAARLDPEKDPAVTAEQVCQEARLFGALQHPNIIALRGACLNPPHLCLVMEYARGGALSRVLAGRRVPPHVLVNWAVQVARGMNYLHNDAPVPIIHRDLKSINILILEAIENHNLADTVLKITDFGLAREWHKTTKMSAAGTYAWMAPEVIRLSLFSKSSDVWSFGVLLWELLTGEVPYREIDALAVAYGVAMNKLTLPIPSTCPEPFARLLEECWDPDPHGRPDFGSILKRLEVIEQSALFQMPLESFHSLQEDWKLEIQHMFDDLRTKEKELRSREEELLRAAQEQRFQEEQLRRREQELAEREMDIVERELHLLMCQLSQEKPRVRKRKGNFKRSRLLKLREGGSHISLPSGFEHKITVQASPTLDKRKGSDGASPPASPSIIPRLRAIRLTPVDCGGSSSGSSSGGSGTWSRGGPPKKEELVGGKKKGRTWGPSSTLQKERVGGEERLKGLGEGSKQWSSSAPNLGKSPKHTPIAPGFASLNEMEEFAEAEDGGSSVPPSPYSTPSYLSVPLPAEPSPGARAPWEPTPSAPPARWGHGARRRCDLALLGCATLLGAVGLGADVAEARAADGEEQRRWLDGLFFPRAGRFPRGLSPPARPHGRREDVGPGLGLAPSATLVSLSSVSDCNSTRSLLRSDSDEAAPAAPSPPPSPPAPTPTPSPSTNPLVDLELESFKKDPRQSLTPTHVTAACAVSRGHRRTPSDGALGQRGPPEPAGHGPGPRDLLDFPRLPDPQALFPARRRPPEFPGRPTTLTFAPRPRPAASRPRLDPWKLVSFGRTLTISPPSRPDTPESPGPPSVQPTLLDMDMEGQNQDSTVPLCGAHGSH
T19 sequence (O15146 24-869): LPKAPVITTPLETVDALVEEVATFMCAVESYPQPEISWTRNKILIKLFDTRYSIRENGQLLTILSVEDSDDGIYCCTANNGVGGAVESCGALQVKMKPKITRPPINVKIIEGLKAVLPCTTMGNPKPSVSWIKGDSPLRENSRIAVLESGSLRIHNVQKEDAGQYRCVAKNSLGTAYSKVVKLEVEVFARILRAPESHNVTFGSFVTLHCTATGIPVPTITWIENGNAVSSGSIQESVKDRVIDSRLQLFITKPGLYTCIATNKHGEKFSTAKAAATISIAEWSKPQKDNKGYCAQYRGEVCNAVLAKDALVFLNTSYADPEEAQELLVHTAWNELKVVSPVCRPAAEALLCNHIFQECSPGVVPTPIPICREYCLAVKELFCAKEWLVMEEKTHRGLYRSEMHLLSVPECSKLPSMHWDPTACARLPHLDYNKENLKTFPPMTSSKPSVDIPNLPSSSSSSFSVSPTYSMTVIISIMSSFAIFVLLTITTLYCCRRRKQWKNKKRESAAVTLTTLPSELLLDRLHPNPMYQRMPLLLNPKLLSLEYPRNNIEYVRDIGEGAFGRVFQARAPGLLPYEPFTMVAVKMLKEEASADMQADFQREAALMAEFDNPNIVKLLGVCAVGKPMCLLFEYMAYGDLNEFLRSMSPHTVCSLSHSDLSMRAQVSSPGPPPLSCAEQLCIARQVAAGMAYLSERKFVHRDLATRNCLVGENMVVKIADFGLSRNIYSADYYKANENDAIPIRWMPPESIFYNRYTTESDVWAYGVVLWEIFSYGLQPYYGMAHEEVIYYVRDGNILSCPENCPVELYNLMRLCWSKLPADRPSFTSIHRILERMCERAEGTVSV
T12 sequence (Q7KZI7 whole entry): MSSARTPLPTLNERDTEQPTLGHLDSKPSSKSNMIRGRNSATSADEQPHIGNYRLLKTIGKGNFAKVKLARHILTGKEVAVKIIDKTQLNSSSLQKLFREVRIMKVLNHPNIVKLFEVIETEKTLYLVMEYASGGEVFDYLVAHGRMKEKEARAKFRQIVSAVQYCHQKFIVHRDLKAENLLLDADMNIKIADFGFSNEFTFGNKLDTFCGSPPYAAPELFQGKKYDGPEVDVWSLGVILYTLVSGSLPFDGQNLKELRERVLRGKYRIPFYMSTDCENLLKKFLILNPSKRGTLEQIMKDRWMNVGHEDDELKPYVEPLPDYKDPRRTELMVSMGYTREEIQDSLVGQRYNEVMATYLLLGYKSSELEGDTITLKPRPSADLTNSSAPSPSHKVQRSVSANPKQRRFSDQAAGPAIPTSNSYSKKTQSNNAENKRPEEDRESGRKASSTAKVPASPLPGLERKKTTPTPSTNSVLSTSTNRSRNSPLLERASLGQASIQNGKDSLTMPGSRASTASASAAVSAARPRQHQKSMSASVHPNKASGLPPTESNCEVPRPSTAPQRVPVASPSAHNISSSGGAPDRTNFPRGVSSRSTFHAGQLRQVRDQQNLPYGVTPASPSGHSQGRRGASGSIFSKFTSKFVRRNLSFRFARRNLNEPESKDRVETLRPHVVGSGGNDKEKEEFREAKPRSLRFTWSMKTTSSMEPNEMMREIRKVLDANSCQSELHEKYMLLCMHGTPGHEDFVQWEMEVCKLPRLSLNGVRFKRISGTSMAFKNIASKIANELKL
T25 sequence (O15530 whole entry): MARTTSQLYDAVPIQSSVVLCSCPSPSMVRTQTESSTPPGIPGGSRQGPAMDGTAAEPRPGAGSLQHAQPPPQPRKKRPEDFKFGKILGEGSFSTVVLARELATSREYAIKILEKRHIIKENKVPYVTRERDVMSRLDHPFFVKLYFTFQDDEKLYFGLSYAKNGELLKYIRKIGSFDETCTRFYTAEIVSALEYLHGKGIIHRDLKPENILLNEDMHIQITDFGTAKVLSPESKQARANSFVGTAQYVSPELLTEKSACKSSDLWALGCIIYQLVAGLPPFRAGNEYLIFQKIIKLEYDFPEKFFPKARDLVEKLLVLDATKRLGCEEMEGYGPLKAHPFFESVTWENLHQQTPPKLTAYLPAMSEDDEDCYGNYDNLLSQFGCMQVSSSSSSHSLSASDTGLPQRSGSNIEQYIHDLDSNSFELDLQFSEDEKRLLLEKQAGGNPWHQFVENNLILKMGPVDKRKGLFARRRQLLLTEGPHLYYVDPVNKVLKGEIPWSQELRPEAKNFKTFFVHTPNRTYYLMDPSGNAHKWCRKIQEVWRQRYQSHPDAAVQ
T9 sequence (O14965 whole entry): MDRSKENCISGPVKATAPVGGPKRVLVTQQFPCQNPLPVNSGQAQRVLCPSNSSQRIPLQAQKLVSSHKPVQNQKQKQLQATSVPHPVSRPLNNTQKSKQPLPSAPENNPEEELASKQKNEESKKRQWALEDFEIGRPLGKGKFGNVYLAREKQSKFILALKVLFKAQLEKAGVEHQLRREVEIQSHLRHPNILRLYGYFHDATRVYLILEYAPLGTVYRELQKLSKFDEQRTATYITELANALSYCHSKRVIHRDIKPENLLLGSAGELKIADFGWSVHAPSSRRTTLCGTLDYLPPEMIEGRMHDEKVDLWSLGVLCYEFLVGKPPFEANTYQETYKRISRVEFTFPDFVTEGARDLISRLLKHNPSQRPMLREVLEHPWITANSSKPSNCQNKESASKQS
T14 sequence (P11309 whole entry): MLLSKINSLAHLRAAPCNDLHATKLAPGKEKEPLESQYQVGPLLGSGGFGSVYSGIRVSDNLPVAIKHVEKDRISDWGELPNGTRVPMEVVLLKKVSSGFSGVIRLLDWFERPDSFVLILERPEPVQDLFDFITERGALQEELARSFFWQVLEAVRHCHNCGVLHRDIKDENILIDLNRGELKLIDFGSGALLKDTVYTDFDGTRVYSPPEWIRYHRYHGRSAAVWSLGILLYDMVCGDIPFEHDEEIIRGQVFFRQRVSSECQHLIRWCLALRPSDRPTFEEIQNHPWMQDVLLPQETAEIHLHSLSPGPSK

**Q.** How did the remaining activity at 0.5 µM (MAP3K10 /MLK2) turn out when `CCOc1ccc(-n2nnc3cnc(Nc4cnn(CC)c4)nc32)cc1` [Compound 2, 3-(4-Ethoxyphenyl)-N-(1-ethyl-1H-pyrazol-4-yl)-3H-[1,2,3]triazolo[4,5-d]pyrimidin-5-amine] was run?
**A.** 96.7%

**Q.** And the remaining activity at 0.5 µM (FLT3)?
**A.** 100%

**Q.** What about the remaining activity at 0.5 µM (MST2) of the same molecule?
**A.** 100%

**Q.** And the remaining activity at 0.5 µM (AMPK-a1/AMPK)?
**A.** 100%

**Q.** What about the remaining activity at 0.5 µM (MARK1) of the same molecule?
**A.** 100%

**Q.** What about the remaining activity at 0.5 µM (PLK4) of the same molecule?
**A.** 100%

**Q.** And the remaining activity at 0.5 µM (PDGFRB)?
**A.** 84.4%

**Q.** What about the remaining activity at 0.5 µM (SRC) of the same molecule?
**A.** 99.1%

**Q.** What about the remaining activity at 0.5 µM (AURKA) of the same molecule?
**A.** 97.1%

**Q.** And the remaining activity at 0.5 µM (SIK1/SNF1LK)?
**A.** 99.9%

**Q.** And the remaining activity at 0.5 µM (HCK)?
**A.** 96%

**Q.** And the remaining activity at 0.5 µM (MARK2)?
**A.** 99.3%

**Q.** What about the remaining activity at 0.5 µM (PKG1/PRKG1) of the same molecule?
**A.** 96%

**Q.** And the remaining activity at 0.5 µM (PIM1)?
**A.** 93.4%

**Q.** And the remaining activity at 0.5 µM (MAPK14/p38a)?
**A.** 100%

**Q.** And the remaining activity at 0.5 µM (MAP3K11/MLK3)?
**A.** 100%

**Q.** What about the remaining activity at 0.5 µM (PKCe/PRKCE) of the same molecule?
**A.** 100%

**Q.** And the remaining activity at 0.5 µM (ABL1)?
**A.** 88.9%

**Q.** And the remaining activity at 0.5 µM (MUSK)?
**A.** 100%

**Q.** And the remaining activity at 0.5 µM (EPHA5)?
**A.** 97.8%

**Q.** And the remaining activity at 0.5 µM (PKA/PRKACA)?
**A.** 100%

**Q.** And the remaining activity at 0.5 µM (CAMK1D)?
**A.** 92.9%

**Q.** And the remaining activity at 0.5 µM (YSK1)?
**A.** 93.6%

**Q.** What about the remaining activity at 0.5 µM (MSK2/RPS6KA4) of the same molecule?
**A.** 100%

**Q.** And the remaining activity at 0.5 µM (PDK1/PDPK1)?
**A.** 96.2%
